Measured values taken from ChEMBL document CHEMBL3352315, “Biotransformation of huperzine A by a fungal endophyte of Huperzia serrata furnished sesquiterpenoid-alkaloid hybrids” (J Nat Prod, 2014).
pIC50: −log10 of the molar value.

Molecular target: Acetylcholinesterase (Homo sapiens, UniProt P22303)
Experiment: Inhibition of acetylcholinesterase (unknown origin) assessed as inhibition of acetylcholine hydrolysis after 30 mins by Ellmann's method

Chain of Acetylcholinesterase (P22303 whole entry): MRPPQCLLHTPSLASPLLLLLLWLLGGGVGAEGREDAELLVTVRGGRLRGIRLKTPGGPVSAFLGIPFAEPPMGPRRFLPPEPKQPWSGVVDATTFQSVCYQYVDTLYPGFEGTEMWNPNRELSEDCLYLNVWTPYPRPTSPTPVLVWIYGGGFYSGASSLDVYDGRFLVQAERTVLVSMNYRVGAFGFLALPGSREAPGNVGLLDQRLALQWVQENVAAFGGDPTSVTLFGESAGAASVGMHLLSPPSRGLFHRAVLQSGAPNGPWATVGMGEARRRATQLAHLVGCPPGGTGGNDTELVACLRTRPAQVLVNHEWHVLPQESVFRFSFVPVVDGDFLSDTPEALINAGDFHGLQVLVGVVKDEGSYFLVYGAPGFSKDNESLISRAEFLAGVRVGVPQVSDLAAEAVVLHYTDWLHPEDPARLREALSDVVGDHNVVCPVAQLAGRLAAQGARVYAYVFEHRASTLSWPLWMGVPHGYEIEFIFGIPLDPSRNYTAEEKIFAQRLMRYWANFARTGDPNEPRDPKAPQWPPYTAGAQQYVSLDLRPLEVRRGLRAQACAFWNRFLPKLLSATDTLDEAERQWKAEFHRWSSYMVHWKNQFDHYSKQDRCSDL

SMILES	pIC50
C/C=C1\[C@H]2C=C(C)C[C@]1(N[C@H]1OC(=O)C3=C4CC(C)(C)C[C@H]4[C@@H](C)[C@@H](O)C[C@]31OC)c1ccc(=O)[nH]c1C2	6.00
C/C=C1\[C@H]2C=C(C)C[C@]1(N[C@H]1OC(=O)C3=C4CC(C)(C)C[C@H]4[C@@H](C)[C@@H](O)C[C@]31O)c1ccc(=O)[nH]c1C2	5.66
C/C=C1\[C@H]2C=C(C)C[C@]1(NC1OCC3=C4CC(C)(C)C[C@H]4[C@@H](C)[C@H](O)CC31O)c1ccc(=O)[nH]c1C2 (stereo not given in full)	6.96
C/C=C1\[C@H]2C=C(C)C[C@]1(NC1OCC3=C4CC(C)(C)[C@H](O)[C@H]4[C@@H](C)CCC31O)c1ccc(=O)[nH]c1C2 (stereo not given in full)	7.22
C/C=C1/[C@@H]2Cc3[nH]c(=O)ccc3[C@@]1(N)C[C@]1(C)O[C@H]21	4.92
